Experimental data from patent US20250000873A1, “INHALED ILOPROST FOR RESCUE TREATMENT AND TREATMENT AS NEEDED IN PULMONARY HYPERTENSION” (JUSTUS-LIEBIG-UNIVERSITAET GIESSEN, priority 2021, published 2025).
“Also recorded” adds a separate entry of the source.

Key:
[1] = tested on: patients with pulmonary arterial hypertension; assay: Clinical pilot study of iloprost PRN, hemodynamics by intracardiac catheter and tolerability; type: in vivo, human
Description: A clinical pilot study to evaluate the feasibility of iloprost PRN was conducted with 4 patients. Eligible were male and female patients with pulmonary arterial hypertension in the age from 18 to 70 years having a mean pulmonary arterial blood pressure (PAP) higher than 25 mm Hg, a pulmonary vascular resistance (PVR) higher than 240 dyn*s*cm−5, a central venous pressure (CVP) higher than 3 mm Hg, and a pulmonary capillary wedge pressure (PCWP) lower than 12 mm Hg. Patients were therapy-naïve, or were receiving PH-specific medication (endothelin receptor antagonists, phosphodiesterase type 5 inhibitors, prostacyclin analogues) alone or in combination. Patients were monitored by ECG, pulse oxymetry, and non-invasive blood pressure measurement. An intracardiac catheter was introduced into the distal pulmonary artery to measure PAP, CVP, PCWP, and cardiac output. Also measured were the heart rate, systemic arterial pressure (SAP), systemic vascular resistance (SVR), central arterial and venous blood gases. After the initial determination of all parameters the reactivity of the pulmonary vasculature to oxygen (2 to 4 L/min) and nitric oxide (20 ppm) was tested. Subsequently, patients inhaled a single dose of 2.5 μg of nebulized iloprost in two breaths, using a prototype of a soft mist inhaler filled with iloprost in a concentration of 50 μg/ml. Hemodynamic parameters and clinical condition of the patients were assessed before and 1, 5, 15 and 30 minutes after inhalation. In the absence of adverse effects, a second inhalation maneuver with 4 breaths corresponding to a dose 5 μg iloprost was performed, again followed by an observation period of at least 30 minutes.

[2] = tested on: hemodynamic parameters of pulmonary circulation; conditions: conventional nebulizers, administered over 10 minutes; cited from earlier work

Structure (SMILES): CC#CCC(C)[C@H](O)/C=C/[C@@H]1[C@H]2C/C(=C/CCCC(=O)O)C[C@H]2C[C@H]1O (stereo partly drawn) [iloprost, 5-{(E)-(1S,5S,6R,7R)-7-hydroxy-6[(E)-(3S,4RS)-3-hydroxy-4-methyl-1-octen-6-inyl]-bicyclo[3.3.0]octan-3-ylidene}pentanoic acid]
- Tolerability of the treatment ([1]; inhaled 2.5 μg (2 breaths) then 5 μg (4 breaths), prototype soft mist inhaler, iloprost 50 μg/ml, 4 patients): all patients tolerated the treatment well
- Systemic side effects (SAP and SVR changes) ([1]; inhaled 2.5 μg or 5 μg, soft mist inhaler prototype, n=4): without significant systemic side effects
- Onset of therapeutic pulmonary vascular effects (PAP and PVR changes) ([1]; rapid inhalation of 2.5 μg or 5 μg (2 or 4 puffs à 1.25 μg), soft mist inhaler prototype, n=4): already seen within only one minute after rapid iloprost inhalation; also recorded: already registered one minute after finishing the inhalation maneuver
- Time of maximum therapeutic effects on hemodynamic parameters of pulmonary circulation after end of inhalation [2]: approximately 5 minutes
